Calls of active or inactive are those of the source.
Tests used:
[1] = molecular target: T1, Caspase-3 (Homo sapiens, UniProt P42574); assay: SAR Analysis of small molecule inhibitors of Sentrin-specific proteases (SENPs) using a Caspase-3 Selectivity assay. [Related pubchem assays (depositor defined):AID2540, AID2599, AID434973, AID489001]; format: functional
T1 sequence (P42574 whole entry): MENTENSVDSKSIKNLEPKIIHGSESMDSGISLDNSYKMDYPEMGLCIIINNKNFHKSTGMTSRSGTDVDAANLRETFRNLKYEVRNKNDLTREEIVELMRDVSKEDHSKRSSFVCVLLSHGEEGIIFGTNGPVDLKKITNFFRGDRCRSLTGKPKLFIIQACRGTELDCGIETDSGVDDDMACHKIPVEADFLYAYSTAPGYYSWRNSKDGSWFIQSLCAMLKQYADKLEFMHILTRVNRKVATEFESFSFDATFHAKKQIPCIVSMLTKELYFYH

[2] = molecular target: T2, Sentrin-specific protease 7 (Homo sapiens, UniProt Q9BQF6); assay: inhibition of human SENP7 cleavage activity – biochemical, luminescence, SAR follow-up (AID 504497); format: functional
T2 sequence (Q9BQF6 whole entry): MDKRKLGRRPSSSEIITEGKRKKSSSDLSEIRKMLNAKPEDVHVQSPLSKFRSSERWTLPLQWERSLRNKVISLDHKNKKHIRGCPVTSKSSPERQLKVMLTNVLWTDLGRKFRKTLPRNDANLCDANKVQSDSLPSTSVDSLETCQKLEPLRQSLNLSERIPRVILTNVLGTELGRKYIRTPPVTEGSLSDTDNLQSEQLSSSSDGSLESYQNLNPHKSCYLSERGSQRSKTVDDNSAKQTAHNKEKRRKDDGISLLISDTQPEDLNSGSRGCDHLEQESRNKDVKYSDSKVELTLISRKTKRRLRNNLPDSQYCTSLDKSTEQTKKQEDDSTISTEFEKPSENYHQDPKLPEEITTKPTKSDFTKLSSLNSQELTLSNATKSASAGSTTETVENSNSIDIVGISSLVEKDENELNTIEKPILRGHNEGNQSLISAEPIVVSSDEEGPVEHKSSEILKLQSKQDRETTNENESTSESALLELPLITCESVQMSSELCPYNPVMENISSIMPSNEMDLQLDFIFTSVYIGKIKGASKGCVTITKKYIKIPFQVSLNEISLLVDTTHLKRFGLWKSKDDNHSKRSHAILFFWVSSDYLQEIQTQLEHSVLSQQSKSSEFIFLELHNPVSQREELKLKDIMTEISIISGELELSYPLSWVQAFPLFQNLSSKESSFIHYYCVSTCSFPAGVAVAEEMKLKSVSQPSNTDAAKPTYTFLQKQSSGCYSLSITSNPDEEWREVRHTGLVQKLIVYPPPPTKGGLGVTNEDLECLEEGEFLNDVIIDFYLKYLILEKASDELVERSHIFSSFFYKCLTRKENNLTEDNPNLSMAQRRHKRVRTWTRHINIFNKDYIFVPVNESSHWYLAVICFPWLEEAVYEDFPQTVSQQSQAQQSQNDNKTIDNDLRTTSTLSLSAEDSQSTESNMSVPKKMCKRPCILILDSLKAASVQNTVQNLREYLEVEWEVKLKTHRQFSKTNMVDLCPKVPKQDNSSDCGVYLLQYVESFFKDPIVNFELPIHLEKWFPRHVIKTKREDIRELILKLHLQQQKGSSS

[3] = molecular target: T3, Sentrin-specific protease 8 (Homo sapiens, UniProt Q96LD8); assay: inhibition of human SENP8 cleavage activity – biochemical, luminescence, SAR follow-up (AID 504501); format: functional
T3 sequence (Q96LD8 whole entry): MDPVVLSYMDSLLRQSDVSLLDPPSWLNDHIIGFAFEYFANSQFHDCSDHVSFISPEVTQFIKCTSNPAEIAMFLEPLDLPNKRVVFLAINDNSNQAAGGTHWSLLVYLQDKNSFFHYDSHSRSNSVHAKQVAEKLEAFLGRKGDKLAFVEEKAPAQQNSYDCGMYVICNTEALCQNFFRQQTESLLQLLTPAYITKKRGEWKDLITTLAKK

[4] = molecular target: T4, Sentrin-specific protease 6 (Homo sapiens, UniProt Q9GZR1); assay: SAR Analysis of small molecule inhibitors of Sentrin-specific protease 6 (SENP6) using a Luminescent assay. [Related pubchem assays (depositor defined):AID2582, AID2599]; format: functional
T4 sequence (Q9GZR1 whole entry): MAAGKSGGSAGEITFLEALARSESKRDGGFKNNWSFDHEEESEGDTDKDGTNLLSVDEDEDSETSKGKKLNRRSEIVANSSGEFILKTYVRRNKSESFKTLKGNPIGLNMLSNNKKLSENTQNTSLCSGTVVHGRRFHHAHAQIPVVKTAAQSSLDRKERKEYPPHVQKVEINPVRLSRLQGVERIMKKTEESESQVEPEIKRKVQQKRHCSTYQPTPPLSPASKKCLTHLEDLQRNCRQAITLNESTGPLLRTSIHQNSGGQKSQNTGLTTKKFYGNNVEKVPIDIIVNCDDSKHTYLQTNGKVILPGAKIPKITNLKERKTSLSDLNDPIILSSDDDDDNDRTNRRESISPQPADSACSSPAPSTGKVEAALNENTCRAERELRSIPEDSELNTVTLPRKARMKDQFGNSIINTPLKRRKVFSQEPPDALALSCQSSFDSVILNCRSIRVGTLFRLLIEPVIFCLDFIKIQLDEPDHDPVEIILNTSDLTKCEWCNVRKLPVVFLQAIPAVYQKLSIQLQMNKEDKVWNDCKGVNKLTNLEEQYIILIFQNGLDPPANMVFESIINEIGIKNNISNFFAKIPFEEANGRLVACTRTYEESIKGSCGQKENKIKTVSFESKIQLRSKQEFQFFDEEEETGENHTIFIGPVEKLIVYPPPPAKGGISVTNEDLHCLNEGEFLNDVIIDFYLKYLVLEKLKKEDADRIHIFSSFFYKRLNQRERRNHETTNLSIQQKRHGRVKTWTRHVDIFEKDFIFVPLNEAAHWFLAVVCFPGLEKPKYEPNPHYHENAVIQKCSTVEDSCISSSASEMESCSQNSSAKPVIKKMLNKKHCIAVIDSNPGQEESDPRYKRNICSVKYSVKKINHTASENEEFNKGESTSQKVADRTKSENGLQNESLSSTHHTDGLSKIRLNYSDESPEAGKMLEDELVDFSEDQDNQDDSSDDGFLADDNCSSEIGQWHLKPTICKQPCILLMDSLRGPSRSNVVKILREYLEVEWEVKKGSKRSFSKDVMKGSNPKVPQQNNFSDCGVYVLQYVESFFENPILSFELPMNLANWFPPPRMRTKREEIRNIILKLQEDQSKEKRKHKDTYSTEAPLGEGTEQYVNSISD

[5] = test system: CHO; assay: CHO cell viability loss, potency – luminescence, cytotoxicity control for TLR9-MyD88 binding inhibitor project, dose response (AID 588339); format: functional, cell-based, hamster; settings: Cricetulus griseus;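 also: CHO cells stably coexpressing TLR9 and MyD88 fusions from primary screen; compound exposure lasted 48 hours before viability readout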
[6] = molecular target: T5, Protein RecA (Mycobacterium tuberculosis, UniProt P9WHJ3); assay: Fluorescence Cell-Free Homogeneous Dose Retest to Identify Inhibitors of RecA-Intein Splicing Activity. [Related pubchem assays (depositor defined):AID2097, AID2223, AID489010, AID492950]; format: functional
T5 sequence (P9WHJ3 whole entry): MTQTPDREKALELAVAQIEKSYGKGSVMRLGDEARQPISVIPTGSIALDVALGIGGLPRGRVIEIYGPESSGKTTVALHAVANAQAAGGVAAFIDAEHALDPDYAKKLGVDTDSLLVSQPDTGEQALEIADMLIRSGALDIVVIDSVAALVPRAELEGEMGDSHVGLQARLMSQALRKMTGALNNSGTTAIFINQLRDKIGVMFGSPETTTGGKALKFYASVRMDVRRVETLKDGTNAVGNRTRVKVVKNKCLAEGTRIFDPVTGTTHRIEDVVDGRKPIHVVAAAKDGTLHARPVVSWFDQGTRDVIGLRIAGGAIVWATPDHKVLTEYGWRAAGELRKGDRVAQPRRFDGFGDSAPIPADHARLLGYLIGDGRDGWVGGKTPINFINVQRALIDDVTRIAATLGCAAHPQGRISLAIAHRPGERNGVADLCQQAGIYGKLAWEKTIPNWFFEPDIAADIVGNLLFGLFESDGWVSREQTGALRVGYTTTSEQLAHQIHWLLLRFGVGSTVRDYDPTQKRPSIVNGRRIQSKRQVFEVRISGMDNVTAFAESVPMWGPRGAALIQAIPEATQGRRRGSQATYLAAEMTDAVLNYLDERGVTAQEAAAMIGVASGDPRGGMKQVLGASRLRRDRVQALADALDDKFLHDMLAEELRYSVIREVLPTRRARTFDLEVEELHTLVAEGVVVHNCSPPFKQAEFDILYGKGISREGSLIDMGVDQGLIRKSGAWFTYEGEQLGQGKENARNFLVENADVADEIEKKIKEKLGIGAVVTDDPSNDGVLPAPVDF

[7] = molecular target: Sphingosine 1-phosphate receptor 2 (Homo sapiens, UniProt O95136); assay: Dose Response Cell Based Assay for Antagonists of the S1P2 Receptor. [Related pubchem assays: 856, 736 ]; format: functional
[8] = molecular target: T6, Sphingosine 1-phosphate receptor 4 (Homo sapiens, UniProt O95977); assay: Fluorescence dose response cell-based high throughput screening assay for antagonists of the Sphingosine 1-Phosphate Receptor 4 (S1P4). [Related pubchem assays: 1524 (Confirmation in triplicates.), 1510 (Primary screen.)]; format: functional
T6 sequence (O95977 whole entry): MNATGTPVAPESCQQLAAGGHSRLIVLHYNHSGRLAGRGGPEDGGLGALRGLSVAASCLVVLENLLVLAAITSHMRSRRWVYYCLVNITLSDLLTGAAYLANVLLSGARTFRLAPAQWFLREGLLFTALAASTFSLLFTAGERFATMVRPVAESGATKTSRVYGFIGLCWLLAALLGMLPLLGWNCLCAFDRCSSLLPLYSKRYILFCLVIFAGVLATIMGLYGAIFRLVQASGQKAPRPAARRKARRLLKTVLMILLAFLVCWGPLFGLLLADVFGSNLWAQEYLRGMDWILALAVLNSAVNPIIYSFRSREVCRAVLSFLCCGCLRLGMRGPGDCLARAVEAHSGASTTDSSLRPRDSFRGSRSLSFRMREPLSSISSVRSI

[9] = non-specific 3'UTR reporter inhibition in Clone20-Shn3RL – cell-based, Renilla luciferase, cherry-picked, counter-screen for Shn3 inhibitor project, dose response (AID 624133); format: functional
[10] = molecular target: T7, Replicative DNA helicase DnaB (Mycobacterium tuberculosis, UniProt P9WMR3); assay: DnaB intein splicing inhibitors, dose response, biochemical, cell-free fluorescence (AID 449749); format: functional
T7 sequence (P9WMR3 whole entry): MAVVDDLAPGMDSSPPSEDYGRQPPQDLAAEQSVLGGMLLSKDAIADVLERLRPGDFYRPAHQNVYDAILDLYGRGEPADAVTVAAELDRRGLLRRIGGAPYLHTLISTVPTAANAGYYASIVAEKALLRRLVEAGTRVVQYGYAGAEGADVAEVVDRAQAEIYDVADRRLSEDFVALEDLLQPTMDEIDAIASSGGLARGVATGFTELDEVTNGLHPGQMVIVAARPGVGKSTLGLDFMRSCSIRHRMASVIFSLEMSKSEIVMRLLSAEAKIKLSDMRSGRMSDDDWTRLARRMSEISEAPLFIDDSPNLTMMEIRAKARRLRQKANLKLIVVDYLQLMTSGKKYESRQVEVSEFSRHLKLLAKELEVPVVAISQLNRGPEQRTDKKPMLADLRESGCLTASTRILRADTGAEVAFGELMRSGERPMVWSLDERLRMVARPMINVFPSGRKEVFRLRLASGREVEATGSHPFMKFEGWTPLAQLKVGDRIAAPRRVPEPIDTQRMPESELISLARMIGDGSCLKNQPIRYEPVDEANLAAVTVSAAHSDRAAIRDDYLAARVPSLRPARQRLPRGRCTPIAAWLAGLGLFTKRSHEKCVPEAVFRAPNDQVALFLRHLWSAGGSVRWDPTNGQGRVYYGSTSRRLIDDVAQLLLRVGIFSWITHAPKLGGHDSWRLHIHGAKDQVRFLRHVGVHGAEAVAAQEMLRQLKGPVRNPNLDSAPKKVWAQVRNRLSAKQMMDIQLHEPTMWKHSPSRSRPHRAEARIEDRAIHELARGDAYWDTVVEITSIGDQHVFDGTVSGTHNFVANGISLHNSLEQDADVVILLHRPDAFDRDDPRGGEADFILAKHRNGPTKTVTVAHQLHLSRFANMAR

[11] = molecular target: Sphingosine 1-phosphate receptor 1 (Homo sapiens, UniProt P21453); format: functional;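 also: Tango beta-arrestin reporter U2OS cells stimulated with S1P near its EC80; inhibitor potency meaning antagonism of receptor activation by the natural agonist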
[12] = reduction of Shn3 3'UTR-driven luciferase in osteoblasts – cell-based, Clone20 osteoblasts, firefly luciferase, cherry-picked, dose response (AID 624132); format: functional;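 also: firefly luciferase luminescence from reporter carrying the Shn3 3'UTR in osteoblasts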
[13] = HEK-293T viability loss after treatment – luminescence, T-cell screen hits, cytotoxicity control for TCR NF-kB inhibitor project, dose response (AID 489026); format: functional, cell-based;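 also: cells exposed to compound about 14 hours before the viability readout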
[14] = molecular target: Beta Lactamase (Pseudomonas aeruginosa, UniProt Q932Y6); assay: BLA reporter interference, concentration series – BLA reporter cells, FRET fluorescence, artefact control for TLR9-MyD88 binding inhibitor project, dose response (AID 588341); format: cell-based;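 also: cell based assay in CHO-K1 cells stably expressing beta-lactamase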
[15] = loss of viability in HepG2 cells – cell-based, CellTiter-Glo, cherry-picked, cytotoxicity control for Shn3 inhibitor project, dose response (AID 624134); format: functional

Chain of Sphingosine 1-phosphate receptor 1 (P21453 whole entry): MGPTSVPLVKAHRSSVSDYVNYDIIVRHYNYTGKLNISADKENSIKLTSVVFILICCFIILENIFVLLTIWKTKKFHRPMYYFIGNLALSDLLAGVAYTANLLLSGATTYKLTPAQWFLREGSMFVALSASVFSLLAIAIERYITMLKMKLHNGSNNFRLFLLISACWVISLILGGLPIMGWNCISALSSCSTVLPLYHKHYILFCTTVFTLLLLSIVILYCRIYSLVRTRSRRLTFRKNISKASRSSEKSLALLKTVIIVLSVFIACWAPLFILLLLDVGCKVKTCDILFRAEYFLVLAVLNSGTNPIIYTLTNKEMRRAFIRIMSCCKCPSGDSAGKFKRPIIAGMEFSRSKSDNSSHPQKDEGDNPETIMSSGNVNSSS
Chain of Sphingosine 1-phosphate receptor 2 (O95136 whole entry): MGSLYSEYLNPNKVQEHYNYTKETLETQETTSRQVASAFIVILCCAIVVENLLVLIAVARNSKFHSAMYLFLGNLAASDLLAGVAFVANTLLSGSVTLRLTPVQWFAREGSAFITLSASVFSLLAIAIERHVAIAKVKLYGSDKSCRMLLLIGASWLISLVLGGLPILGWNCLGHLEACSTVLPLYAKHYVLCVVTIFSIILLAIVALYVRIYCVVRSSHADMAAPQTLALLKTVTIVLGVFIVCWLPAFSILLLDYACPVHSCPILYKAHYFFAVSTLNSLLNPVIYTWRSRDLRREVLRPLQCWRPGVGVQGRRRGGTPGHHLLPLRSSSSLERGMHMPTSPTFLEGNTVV
Chain of Beta Lactamase (Q932Y6 whole entry): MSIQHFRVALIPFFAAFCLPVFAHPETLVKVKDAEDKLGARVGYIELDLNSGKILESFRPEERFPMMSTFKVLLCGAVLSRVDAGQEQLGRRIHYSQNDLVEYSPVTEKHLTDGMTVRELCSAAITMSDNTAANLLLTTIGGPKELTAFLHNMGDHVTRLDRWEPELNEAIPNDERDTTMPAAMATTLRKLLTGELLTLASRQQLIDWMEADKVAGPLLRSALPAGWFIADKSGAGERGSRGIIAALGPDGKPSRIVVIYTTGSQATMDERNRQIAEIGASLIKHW

Row | Structure (SMILES) | IC50 [1] | IC50 [2] | IC50 [3] | IC50 [4] | IC50 [5] | EC50 [6] | IC50 [7] | IC50 [8] | AC50 [9] | AC50 [10] | IC50 [11] | AC50 [12] | IC50 [13] | IC50 [14] | AC50 [15]
1 | CCOc1ccc2nc(NC(=O)c3nc(SC(C)C)ncc3Cl)sc2c1 | > 99 µM (inactive) | > 99 µM (inactive) | > 99 µM (inactive) | > 99 µM (inactive) |  |  |  |  |  |  |  |  |  |  | 
2 | COc1ccc(CS(=O)(=O)/C(Cl)=C(/Cl)C(=O)Nc2ccc(OC)nc2)cc1 |  |  |  |  | 2.03 µM (active) | 3.34 µM (active) | 1.67 µM (active) | 0.852 µM (active) | 6.84 µM (active) | 3.88 µM (active) | 6.21 µM (active) | < 0.26 µM (active) | 27.9 µM (inactive) | > 49.7 µM (inactive) | 10.6 µM (active)
